Results reported in patent US20240158392A1 (Janssen Biotech, Inc., priority 2021, published 2024).

target: SIK2 (Homo sapiens, UniProt Q9H0K1); assay: SIK2 Enzymatic Assay High Version 2 (High ATP); type: biochemical; details: not given
Outline: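 At room temperature, enzyme (6 nM, 2× final) was preincubated with compound for 30 min, then 6 mM ATP and 400 μM HDAC5tide (both 2× final) were added for 2 h. ADP formed was measured by ADP-Glo Max (2 h reagent, 1 h detection) using luminescence.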

Chain of SIK2 (Q9H0K1 whole entry, species assumed): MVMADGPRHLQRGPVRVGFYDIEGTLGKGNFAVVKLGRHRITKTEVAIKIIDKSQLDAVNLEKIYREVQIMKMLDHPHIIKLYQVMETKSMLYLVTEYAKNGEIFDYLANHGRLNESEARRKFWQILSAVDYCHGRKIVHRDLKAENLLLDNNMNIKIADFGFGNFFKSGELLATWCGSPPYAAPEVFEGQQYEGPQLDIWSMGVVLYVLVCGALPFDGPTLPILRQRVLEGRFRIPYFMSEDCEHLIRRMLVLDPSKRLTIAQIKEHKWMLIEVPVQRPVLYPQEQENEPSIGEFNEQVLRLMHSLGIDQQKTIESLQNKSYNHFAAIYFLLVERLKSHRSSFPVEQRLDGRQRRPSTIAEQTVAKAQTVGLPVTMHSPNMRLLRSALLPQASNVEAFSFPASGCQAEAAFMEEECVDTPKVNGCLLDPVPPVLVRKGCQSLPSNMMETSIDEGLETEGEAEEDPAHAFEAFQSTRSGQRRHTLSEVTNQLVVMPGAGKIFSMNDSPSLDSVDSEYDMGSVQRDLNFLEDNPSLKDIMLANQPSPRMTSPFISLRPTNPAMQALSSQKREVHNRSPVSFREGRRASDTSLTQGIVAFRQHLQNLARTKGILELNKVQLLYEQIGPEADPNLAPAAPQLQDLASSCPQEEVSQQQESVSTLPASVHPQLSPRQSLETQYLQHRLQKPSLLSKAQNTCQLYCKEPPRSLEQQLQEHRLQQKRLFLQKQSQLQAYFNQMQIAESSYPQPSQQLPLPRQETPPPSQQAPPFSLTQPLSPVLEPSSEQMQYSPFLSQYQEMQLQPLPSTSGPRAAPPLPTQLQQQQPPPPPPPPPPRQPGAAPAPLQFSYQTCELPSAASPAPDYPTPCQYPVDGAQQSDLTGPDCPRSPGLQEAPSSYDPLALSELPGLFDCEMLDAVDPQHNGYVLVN

**Q.** How did the IC50 turn out when `Cc1cc(-c2cc3cc(NC(=O)C4CC4)nn3cn2)c(O[C@H]2C[C@H]3COC[C@@H](C2)N3C)cn1` [Example 319, N-[5-[2-methyl-5-[[(1S,5R)-9-methyl-3-oxa-9-azabicyclo[3.3.1]nonan-7-yl]oxy]-4-pyridyl]pyrazolo[1,5-c]pyrimidin-2-yl]cyclopropanecarboxamide] was run?
**A.** Its IC50 is 0.00194 µM.

**Q.** With `Cc1cnc(Nc2cn3cc(-c4cc(C)ncc4O[C@H]4C[C@H]5COC[C@@H](C4)N5)ncc3n2)cn1` [Example 320, 6-[2-methyl-5-[[(1S,5R)-3-oxa-9-azabicyclo[3.3.1]nonan-7-yl]oxy]-4-pyridyl]-N-(5-methylpyrazin-2-yl)imidazo[1,2-a]pyrazin-2-amine] as the molecule, how does the IC50 read?
**A.** The IC50 was 0.00102 µM.

**Q.** How did the IC50 turn out when `Cc1cc(-c2cn3cc(Nc4cncc(C)n4)nc3cn2)c(O[C@H]2C[C@H]3COC[C@@H](C2)N3)cn1` [Example 321, 6-[2-methyl-5-[[(1S,5R)-3-oxa-9-azabicyclo[3.3.1]nonan-7-yl]oxy]-4-pyridyl]-N-(6-methylpyrazin-2-yl)imidazo[1,2-a]pyrazin-2-amine] was run?
**A.** Its IC50 is less than 0.000847 µM.

**Q.** Which IC50 does the source give for `Cc1cc(-c2cn3cc(Nc4cnn(C)c4)nc3cn2)c(O[C@H]2C[C@H]3COC[C@@H](C2)N3)cn1` [Example 322, 6-[2-methyl-5-[[(1S,5R)-3-oxa-9-azabicyclo[3.3.1]nonan-7-yl]oxy]-4-pyridyl]-N-(1-methylpyrazol-4-yl)imidazo[1,2-a]pyrazin-2-amine] here?
**A.** The IC50 was 0.0015 µM.

**Q.** How did the IC50 turn out when `Cc1cc(-c2ccn3nc(Nc4cc(C)nc(C)n4)cc3c2)c(O[C@H]2C[C@H]3COC[C@@H](C2)N3C#N)cn1` [Example 336, (1S,5R)-7-[[4-[2-[(2,6-dimethylpyrimidin-4-yl)amino]pyrazolo[1,5-a]pyridin-5-yl]-6-methyl-3-pyridyl]oxy]-3-oxa-9-azabicyclo[3.3.1]nonane-9-carbonitrile] was run?
**A.** The IC50 was less than 0.000847 µM.

**Q.** With `Cc1cc(-c2ccn3nc(Nc4cc(C)c(=O)n(C)n4)cc3c2)c(OC2C[C@H]3COC[C@@H](C2)N3)cn1` (stereo partly drawn) [Example 337, 2,4-dimethyl-6-[[5-[2-methyl-5-[[(1S,5R)-3-oxa-9-azabicyclo[3.3.1]nonan-7-yl]oxy]-4-pyridyl]pyrazolo[1,5-a]pyridin-2-yl]amino]pyridazin-3-one] as the molecule, how does the IC50 read?
**A.** The IC50 was 0.00148 µM.

**Q.** Which IC50 does the source give for `Cc1cc(-c2ccn3nc(Nc4nccc(C)c4F)cc3c2)c(O[C@H]2C[C@H]3COC[C@@H](C2)N3)cn1` [Example 338, N-(3-fluoro-4-methyl-2-pyridyl)-5-[2-methyl-5-[[(1S,5R)-3-oxa-9-azabicyclo[3.3.1]nonan-7-yl]oxy]-4-pyridyl]pyrazolo[1,5-a]pyridin-2-amine] here?
**A.** The IC50 was 0.00325 µM.

**Q.** With `CC(=O)N1[C@@H]2COC[C@H]1C[C@@H](Oc1cnc(C)cc1-c1ccn3nc(NC(=O)C4CC4)cc3c1)C2` [Example 339, N-[5-[5-[[(1S,5R)-9-acetyl-3-oxa-9-azabicyclo[3.3.1]nonan-7-yl]oxy]-2-methyl-4-pyridyl]pyrazolo[1,5-a]pyridin-2-yl]cyclopropanecarboxamide] as the molecule, how does the IC50 read?
**A.** Its IC50 is 0.00231 µM.

same assay, conditions: enzyme 6 nM, 6 mM ATP and 400 μM HDAC5tide (each 2× final concentration); 30 minutes pre-incubation, 2 hours; ADP-Glo Max luminescence; read-out: SIK2 high ATP IC50 (μM) (Test Example 2)

**Q.** How did the IC50 turn out when `CNc1nc(C)cc(Nc2cc3cc(-c4cc(C)ncc4OCC(C)(C)C#N)ccn3n2)n1` [Example 309, 2,2-dimethyl-3-[[6-methyl-4-[2-[[6-methyl-2-(methylamino)pyrimidin-4-yl]amino]pyrazolo[1,5-a]pyridin-5-yl]-3-pyridyl]oxy]propanenitrile] was run?
**A.** The IC50 was less than 0.000847 µM.

**Q.** Which IC50 does the source give for `Cc1cc(-c2ccn3nc(Nc4cc(C)nc(C5CC5)n4)cc3c2)c(OCC(C)(C)C#N)cn1` [Example 310, 3-[[4-[2-[(2-cyclopropyl-6-methyl-pyrimidin-4-yl)amino]pyrazolo[1,5-a]pyridin-5-yl]-6-methyl-3-pyridyl]oxy]-2,2-dimethyl-propanenitrile] here?
**A.** The IC50 was less than 0.000847 µM.

**Q.** `Cc1cc(-c2ccn3nc(Nc4cc(C)nc(C)n4)cc3c2)c(OCC2(C(N)=O)CC2)cn1` [Example 313, 1-[[4-[2-[(2,6-dimethylpyrimidin-4-yl)amino]pyrazolo[1,5-a]pyridin-5-yl]-6-methyl-3-pyridyl]oxymethyl]cyclopropanecarboxamide] was tested. Which IC50 did it give?
**A.** Its IC50 is 0.0138 µM.

**Q.** With `Cc1cc(-c2ccn3nc(Nc4cc(C)nc(C)n4)cc3c2)c(O[C@H]2C[C@@H](N)C2)cn1` [Example 314, 5-[5-(3-aminocyclobutoxy)-2-methyl-4-pyridyl]-N-(2,6-dimethylpyrimidin-4-yl)pyrazolo[1,5-a]pyridin-2-amine] as the molecule, how does the IC50 read?
**A.** Its IC50 is 0.0129 µM.

**Q.** How did the IC50 turn out when `Cc1cc(-c2ccn3nc(Nc4cc(C)nc(C)n4)cc3c2)c(OCCC(C)(C)C#N)cn1` [Example 315, 4-[[4-[2-[(2,6-dimethylpyrimidin-4-yl)amino]pyrazolo[1,5-a]pyridin-5-yl]-6-methyl-3-pyridyl]oxy]-2,2-dimethyl-butanenitrile] was run?
**A.** Its IC50 is 0.00406 µM.

**Q.** For `Cc1cc(-c2ccn3nc(Nc4cc(C)c(=O)n(C5CC5)n4)cc3c2)c(OCC(C)(C)C#N)cn1` [Example 316, 3-[[4-[2-[(1-cyclopropyl-5-methyl-6-oxo-pyridazin-3-yl)amino]pyrazolo[1,5-a]pyridin-5-yl]-6-methyl-3-pyridyl]oxy]-2,2-dimethyl-propanenitrile], which IC50 is on record?
**A.** Its IC50 is less than 0.000847 µM.

**Q.** `Cc1cc(-c2ccn3nc(Nc4cc(C)c(=O)n(C5CC5)n4)cc3c2)c(OC[C@H]2OCC[C@@H]2O)cn1` [Example 317, 2-cyclopropyl-6-[[5-[5-[[(2R,3S)-3-hydroxytetrahydrofuran-2-yl]methoxy]-2-methyl-4-pyridyl]pyrazolo[1,5-a]pyridin-2-yl]amino]-4-methyl-pyridazin-3-one] was tested. Which IC50 did it give?
**A.** Its IC50 is 0.0017 µM.

**Q.** `Cc1cc(-c2ccn3nc(Nc4cc(C)c(=O)n(C5CC5)n4)cc3c2)c(O[C@H]2CC[C@H](O)CC2)cn1` [Example 318, 2-cyclopropyl-6-[[5-[5-(4-hydroxycyclohexoxy)-2-methyl-4-pyridyl]pyrazolo[1,5-a]pyridin-2-yl]amino]-4-methyl-pyridazin-3-one] was tested. Which IC50 did it give?
**A.** The IC50 was less than 0.000847 µM.

**Q.** For `Cc1cc(-c2ccn3nc(Nc4ccc(S(=O)(=O)NC5CC5)cc4)cc3c2)c(O[C@H]2CC[C@H](O)CC2)cn1` [Example 323, N-cyclopropyl-4-[[5-[5-(4-hydroxycyclohexoxy)-2-methyl-4-pyridyl]pyrazolo[1,5-a]pyridin-2-yl]amino]benzenesulfonamide], which IC50 is on record?
**A.** The IC50 was 0.0273 µM.

**Q.** For `Cc1cc(-c2ccn3nc(Nc4ccc(S(=O)(=O)N(C)C)cc4)cc3c2)c(O[C@H]2CC[C@H](O)CC2)cn1` [Example 324, 4-[[5-[5-(4-hydroxycyclohexoxy)-2-methyl-4-pyridyl]pyrazolo[1,5-a]pyridin-2-yl]amino]-N,N-dimethyl-benzenesulfonamide], which IC50 is on record?
**A.** The IC50 was 0.0329 µM.

**Q.** How did the IC50 turn out when `Cc1cc(-c2ccn3nc(Nc4cc(C)c(C(=O)NC5CC5)c(C)c4)cc3c2)c(OCC(C)(C)O)cn1` [Example 326, N-cyclopropyl-4-[[5-[5-(2-hydroxy-2-methyl-propoxy)-2-methyl-4-pyridyl]pyrazolo[1,5-a]pyridin-2-yl]amino]-2,6-dimethyl-benzamide] was run?
**A.** Its IC50 is 0.0362 µM.

**Q.** How did the IC50 turn out when `Cc1cc(Nc2cc3cc(-c4cc(CF)ncc4OCC(C)(C)O)ccn3n2)nc(C)n1` [Example 327, 1-[[4-[2-[(2,6-dimethylpyrimidin-4-yl)amino]pyrazolo[1,5-a]pyridin-5-yl]-6-(fluoromethyl)-3-pyridyl]oxy]-2-methyl-propan-2-ol] was run?
**A.** The IC50 was 0.0366 µM.

**Q.** Which IC50 does the source give for `CCc1cc(-c2ccn3nc(Nc4cc(C)nc(C)n4)cc3c2)c(OCC(C)(C)C#N)cn1` [Example 328, 3-[[4-[2-[(2,6-dimethylpyrimidin-4-yl)amino]pyrazolo[1,5-a]pyridin-5-yl]-6-ethyl-3-pyridyl]oxy]-2,2-dimethyl-propanenitrile] here?
**A.** Its IC50 is 0.0381 µM.

**Q.** For `Cc1cc(Nc2cc3cc(-c4cc(OC(F)F)ncc4OCC(C)(C)C#N)ccn3n2)nc(C)n1` [Example 329, 3-[[6-(difluoromethoxy)-4-[2-[(2,6-dimethylpyrimidin-4-yl)amino]pyrazolo[1,5-a]pyridin-5-yl]-3-pyridyl]oxy]-2,2-dimethyl-propanenitrile], which IC50 is on record?
**A.** The IC50 was 0.00358 µM.

**Q.** For `COc1cc(Nc2cc3cc(-c4cc(C)ncc4O[C@H]4CC[C@H](O)CC4)ccn3n2)cc(OC)c1C(=O)NC(C)C` [Example 330, 4-[[5-[5-(4-hydroxycyclohexoxy)-2-methyl-4-pyridyl]pyrazolo[1,5-a]pyridin-2-yl]amino]-N-isopropyl-2,6-dimethoxy-benzamide], which IC50 is on record?
**A.** Its IC50 is 0.028 µM.

**Q.** For `CNC(=O)c1c(OC)cc(Nc2cc3cc(-c4cc(C)ncc4O[C@H]4CC[C@H](O)CC4)ccn3n2)cc1OC` [Example 331, 4-[[5-[5-(4-hydroxycyclohexoxy)-2-methyl-4-pyridyl]pyrazolo[1,5-a]pyridin-2-yl]amino]-2,6-dimethoxy-N-methyl-benzamide], which IC50 is on record?
**A.** Its IC50 is 0.0366 µM.

**Q.** How did the IC50 turn out when `COc1cc(Nc2cc3cc(-c4cc(C)ncc4O[C@H]4CC[C@H](O)CC4)ccn3n2)cc(OC)c1C(=O)N(C)C` [Example 332, 4-[[5-[5-(4-hydroxycyclohexoxy)-2-methyl-4-pyridyl]pyrazolo[1,5-a]pyridin-2-yl]amino]-2,6-dimethoxy-N,N-dimethyl-benzamide] was run?
**A.** Its IC50 is 0.015 µM.

**Q.** Which IC50 does the source give for `COc1cc(Nc2cc3cc(-c4cc(C)ncc4O[C@H]4CC[C@H](O)CC4)ccn3n2)cc(OC(F)F)c1C(=O)NC1CC1` [Example 333, N-cyclopropyl-2-(difluoromethoxy)-4-[[5-[5-(4-hydroxycyclohexoxy)-2-methyl-4-pyridyl]pyrazolo[1,5-a]pyridin-2-yl]amino]-6-methoxy-benzamide] here?
**A.** Its IC50 is 0.0448 µM.

**Q.** `Cc1cc(-c2ccn3nc(Nc4cc(C)c(C(=O)NC5CC5)c(C)n4)cc3c2)c(O[C@H]2CC[C@H](O)CC2)cn1` [Example 334, N-cyclopropyl-6-[[5-[5-(4-hydroxycyclohexoxy)-2-methyl-4-pyridyl]pyrazolo[1,5-a]pyridin-2-yl]amino]-2,4-dimethyl-pyridine-3-carboxamide] was tested. Which IC50 did it give?
**A.** Its IC50 is 0.00301 µM.

**Q.** With `Cc1cc(-c2ccn3nc(Nc4cc(C)c(C(=O)NC5CC5)c(C)n4)cc3c2)c(OCC(C)(C)O)cn1` [Example 335, N-cyclopropyl-6-[[5-[5-(2-hydroxy-2-methyl-propoxy)-2-methyl-4-pyridyl]pyrazolo[1,5-a]pyridin-2-yl]amino]-2,4-dimethyl-pyridine-3-carboxamide] as the molecule, how does the IC50 read?
**A.** The IC50 was 0.0233 µM.
